IC50 data for 24 compounds are collected here from US20080004253A1, “Thiazolopyrimidine modulators of TRPV1” (priority 2006, published 2008).

One experiment deals with T1, human TRPV1 (Homo sapiens, UniProt Q8NER1).
T1 construct: expressed in transfected cells; host or cells: HEK293 (hTRPV1/HEK293), zeocin selection
Put plainly: Functional assay: block of capsaicin-induced Ca2+ influx, human assay (hTRPV1/HEK293, FLIPR). To be noted: hTRPV1/HEK293 cells, 150 nM capsaicin challenge, Fluo-3 fluorescence; mean; > value = solubility limit in assay medium. The format is cell-based. Here is the method:
(§1) Functional assay: block of capsaicin-induced Ca^2+ influx
(§2) HEK293 cells were transfected with human TRPV1 cloned in pcDNA3.1zeo(+) using the Effectene non-liposomal lipid based transfection kit (Qiagen) (hTRPV1/HEK293). hTRPV1/HEK293 cells were routinely grown as monolayers under selection in zeocin (200 μg/mL; Invitrogen) in Dulbecco's Modified Eagle Medium (DMEM, Gibco BRL) supplemented with 10% fetal bovine serum, and penicillin/streptomycin (50 units/mL) in 5% CO2 at 37° C. Cells were passaged frequently, every 3-5 days, to avoid overgrowth, depletion of essential medium components, or acidic medium exposure. Cells were passaged using a brief wash in 0.05% trypsin with 1 mM EDTA, followed by dissociation in divalent-free phosphate-buffered saline (Hyclone #SH30028.02). […] The assay buffer was composed of 130 mM NaCl, 2 mM KCl, 2 mM MgCl2, 10 mM HEPES, 5 mM glucose, and either 2 mM or 20 μM CaCl2. On the day of the experiment, the culture medium was replaced with 2 mM calcium assay buffer using an automated plate washer (ELx405; Biotek, VT). […] After loading the cells, the dye solution was replaced with 50 μL/well of 20 μM calcium assay buffer using the ELx405 plate washer. Test compounds (50 μL/well) were added to the plate and incubated for 30 min. […] The IC50 values were determined. […] The contents of the wells were mixed 3 times (40 μL mix volume) immediately after the additions were made. Concentration-dependence of block was determined by exposing each well of cells in duplicate rows of a 96-well plate to a serial dilution of test compound. The concentration series usually started at 10 μM with a three-fold serial decrement in concentration. The magnitude of the capsaicin response was determined by measuring the change in fluo3 fluorescence before and 100 seconds after the addition of the agonist. Data were analyzed using a non-linear regression program (Origin; OriginLab, MA).
(§3) IC50 values shown are the average (mean) of the results obtained. […] Compounds were tested in either the free base or trifluoroacetic acid salt form.

In a further experiment the target is T2, rat TRPV1 (Rattus norvegicus, UniProt O35433).
T2 construct: expressed in transfected cells; host or cells: HEK293 (rTRPV1/HEK293), geneticin selection
Description: Functional assay: block of capsaicin-induced Ca2+ influx, rat assay (rTRPV1/HEK293, FLIPR). It is filed as cell-based. To be noted: rTRPV1/HEK293 cells, capsaicin challenge, Fluo-3 fluorescence; mean; > value = solubility limit in assay medium. Here is the method:
as §1, §2
This assay was performed similarly to the human assay described above, but using HEK293 cells transfected with rat TRPV1 (rTRPV1/HEK293).
as §3

T1 sequence (Q8NER1 whole entry): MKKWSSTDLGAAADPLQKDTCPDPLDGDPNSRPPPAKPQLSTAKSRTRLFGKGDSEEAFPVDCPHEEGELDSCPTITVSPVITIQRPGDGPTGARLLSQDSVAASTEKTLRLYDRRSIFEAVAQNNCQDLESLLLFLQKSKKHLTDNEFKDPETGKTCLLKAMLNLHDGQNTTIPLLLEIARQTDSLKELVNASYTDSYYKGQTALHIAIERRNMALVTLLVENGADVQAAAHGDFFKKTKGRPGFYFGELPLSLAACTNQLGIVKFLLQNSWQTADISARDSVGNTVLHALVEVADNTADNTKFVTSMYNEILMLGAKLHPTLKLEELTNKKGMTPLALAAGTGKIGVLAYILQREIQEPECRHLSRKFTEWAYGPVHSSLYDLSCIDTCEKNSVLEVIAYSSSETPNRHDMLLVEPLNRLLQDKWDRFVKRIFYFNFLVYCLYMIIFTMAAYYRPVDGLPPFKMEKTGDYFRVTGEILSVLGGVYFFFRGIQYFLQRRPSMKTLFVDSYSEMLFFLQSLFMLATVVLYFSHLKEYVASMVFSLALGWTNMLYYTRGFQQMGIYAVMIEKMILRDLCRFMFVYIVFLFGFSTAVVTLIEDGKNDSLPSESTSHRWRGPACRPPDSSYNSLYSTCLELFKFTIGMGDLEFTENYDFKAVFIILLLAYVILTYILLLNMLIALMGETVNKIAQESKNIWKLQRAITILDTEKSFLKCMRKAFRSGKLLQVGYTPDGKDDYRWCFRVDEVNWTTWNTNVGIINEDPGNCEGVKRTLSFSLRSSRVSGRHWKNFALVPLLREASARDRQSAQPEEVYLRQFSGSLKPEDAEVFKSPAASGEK
T2 sequence (O35433 whole entry): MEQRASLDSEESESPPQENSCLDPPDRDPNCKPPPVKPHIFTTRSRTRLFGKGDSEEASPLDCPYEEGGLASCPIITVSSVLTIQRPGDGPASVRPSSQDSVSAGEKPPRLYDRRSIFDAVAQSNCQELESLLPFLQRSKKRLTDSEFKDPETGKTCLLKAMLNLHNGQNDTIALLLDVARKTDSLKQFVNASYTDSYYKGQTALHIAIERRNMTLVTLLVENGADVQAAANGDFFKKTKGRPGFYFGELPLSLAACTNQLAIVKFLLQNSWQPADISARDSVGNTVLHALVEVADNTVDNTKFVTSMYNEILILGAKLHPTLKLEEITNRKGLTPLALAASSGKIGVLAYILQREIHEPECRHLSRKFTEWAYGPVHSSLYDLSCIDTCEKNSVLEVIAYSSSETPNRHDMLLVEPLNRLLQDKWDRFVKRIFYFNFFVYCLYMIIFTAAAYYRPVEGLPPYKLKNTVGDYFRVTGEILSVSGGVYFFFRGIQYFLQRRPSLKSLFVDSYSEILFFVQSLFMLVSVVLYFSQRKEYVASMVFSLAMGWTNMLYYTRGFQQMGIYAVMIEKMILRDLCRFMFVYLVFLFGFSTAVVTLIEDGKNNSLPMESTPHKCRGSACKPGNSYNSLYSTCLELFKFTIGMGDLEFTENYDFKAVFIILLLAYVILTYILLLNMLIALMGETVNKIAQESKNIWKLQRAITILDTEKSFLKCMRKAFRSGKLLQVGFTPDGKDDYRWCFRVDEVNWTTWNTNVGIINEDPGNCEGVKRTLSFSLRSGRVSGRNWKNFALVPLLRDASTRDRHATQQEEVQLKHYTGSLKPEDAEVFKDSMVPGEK

As to `Cc1noc(C)c1Nc1nc2c(Nc3ccc(S(C)(=O)=O)cc3)ncnc2s1` [Example 224, N^2-(3,5-Dimethylisoxazol-4-yl)-N^7-[4-(methylsulfonyl)phenyl][1,3]thiazolo[5,4-d]pyrimidine-2,7-diamine], the IC50 on human TRPV1 turned out to be 5.53 µM; against rat TRPV1, 1.58 µM.
Regarding `FC(F)(F)c1ccc(Nc2ncnc3sc(Nc4ccccc4C(F)(F)F)nc23)cc1` [Example 225, N^2-[2-(Trifluoromethyl)phenyl]-N^7-[4-(trifluoromethyl)phenyl][1,3]thiazolo[5,4-d]pyrimidine-2,7-diamine], the results for the IC50 at human TRPV1 and against rat TRPV1 were 0.091 µM and 0.032 µM, respectively.
The corresponding values for `CC(CO)Nc1nc(Nc2ccc(C(F)(F)F)cc2)c2nc(Nc3c(Cl)cccc3Cl)sc2n1` (racemic) [Example 186, (racemic)-2-[2-(2,6-Dichloro-phenylamino)-7-(4-trifluoromethyl-phenylamino)-thiazolo[5,4-d]pyrimidin-5-ylamino]-propan-1-ol] are 0.642 µM and 0.666 µM.
The corresponding values for `Cc1nc(Nc2ccc(OC(F)(F)F)cc2)c2nc(Nc3c(Cl)cccc3Cl)sc2n1` [Example 111, N^2-(2,6-Dichloro-phenyl)-5-methyl-N^7-(4-trifluoromethoxy-phenyl)-thiazolo[5,4-d]pyrimidine-2,7-diamine] are 0.036 µM and 0.016 µM.
For `Cc1cccc(C)c1Nc1nc2c(Nc3ccc(S(=O)(=O)C(F)(F)F)cc3)ncnc2s1` [Example 99, N^2-(2,6-Dimethyl-phenyl)-N^7-(4-trifluoromethanesulfonyl-phenyl)-thiazolo[5,4-d]pyrimidine-2,7-diamine], in that order: 0.017 µM and 0.004 µM.
On to `Cc1nc(NC2CCC(C(C)(C)C)CC2)c2nc(Nc3c(C)cccc3C)sc2n1` (mixture of isomers) [Example 249, N^7-(4-tert-Butyl-cyclohexyl)-N^2-(2,6-dimethyl-phenyl)-5-methyl-thiazolo[5,4-d]pyrimidine-2,7-diamine], for which the figures for the IC50 against human TRPV1 and at rat TRPV1 were 4.37 µM and 1.01 µM, respectively.
Regarding `Cc1ccccc1Nc1nc2c(Nc3ccc(S(=O)(=O)N4CCOCC4)cc3)ncnc2s1` [Example 217, N^2-(2-Methylphenyl)-N^7-[4-(morpholin-4-ylsulfonyl)phenyl][1,3]thiazolo[5,4-d]pyrimidine-2,7-diamine], the IC50 on human TRPV1 was 0.008 µM; on rat TRPV1, 0.004 µM.
The corresponding values for `Cc1cccc(C)c1Nc1nc2c(Nc3ccc(SC(C)C)cc3)ncnc2s1` [Example 112, N^2-(2,6-Dimethyl-phenyl)-NT-(4-isopropylsulfanyl-phenyl)-thiazolo[5,4-d]pyrimidine-2,7-diamine] are 0.036 µM and 0.056 µM.
As to `COC(=O)c1scc(C)c1Nc1nc2c(Nc3ccc(C(F)(F)F)nc3)ncnc2s1` [Example 49, 4-Methyl-3-[7-(6-trifluoromethyl-pyridin-3-ylamino)-thiazolo[5,4-d]pyrimidin-2-ylamino]-thiophene-2-carboxylic acid methyl ester], the IC50 against human TRPV1 is 0.375 µM; against rat TRPV1, 0.431 µM.
The corresponding values for `Cc1nc(Nc2ccc(SC(F)(F)F)c(Cl)c2)c2nc(Nc3c(Cl)cccc3Cl)sc2n1` [Example 135, N^7-(3-Chloro-4-trifluoromethylsulfanyl-phenyl)-N^2-(2,6-dichloro-phenyl)-5-methyl-thiazolo[5,4-d]pyrimidine-2,7-diamine] are 0.203 µM and 0.112 µM.
Take `Cc1nc(Nc2ccc([S+](C)[O-])cc2)c2nc(Nc3c(C)cccc3C)sc2n1` (racemic) [Example 143, (racemic)-N^2-(2,6-Dimethyl-phenyl)-N^7-(4-methanesulfinyl-phenyl)-5-methyl-thiazolo[5,4-d]pyrimidine-2,7-diamine]: the IC50 came out at 0.423 µM against human TRPV1 and 0.279 µM at rat TRPV1.
For `FC(F)(F)c1ccc(Nc2ncnc3sc(Nc4c(Cl)cncc4Cl)nc23)cc1` [Example 72, N^2-(3,5-Dichloro-pyridin-4-yl)-N^7-(4-trifluoromethyl-phenyl)-thiazolo[5,4-d]pyrimidine-2,7-diamine], the IC50 at human TRPV1 is 0.74 µM; against rat TRPV1, 0.627 µM.
The corresponding values for `Cc1cccc(C)c1Nc1nc2c(Nc3ccc(Cl)cc3)ncnc2s1` [Example 132, N^7-(4-Chloro-phenyl)-N^2-(2,6-dimethyl-phenyl)-thiazolo[5,4-d]pyrimidine-2,7-diamine] are 0.172 µM and 0.073 µM.
For `Cc1nc(Nc2ccc(SC(C)C)cc2)c2nc(Nc3c(C)cccc3C)sc2n1` [Example 106, N^2-(2,6-Dimethyl-phenyl)-N^7-(4-isopropylsulfanyl-phenyl)-5-methyl-thiazolo[5,4-d]pyrimidine-2,7-diamine], in that order: 0.025 µM and 0.026 µM.
Take `CN(C)S(=O)(=O)c1ccc(Nc2ncnc3sc(Nc4c(Cl)cccc4Cl)nc23)cc1` [Example 75, 4-[2-(2,6-Dichloro-phenylamino)-thiazolo[5,4-d]pyrimidin-7-ylamino]-N,N-dimethyl-benzenesulfonamide]: the IC50 against human TRPV1 and against rat TRPV1 was 0.001 µM each time.
For `Cc1cccc(C)c1Nc1nc2c(Nc3ccc(N(C)S(C)(=O)=O)cc3)ncnc2s1` [Example 161, N-{4-[2-(2,6-Dimethyl-phenylamino)-thiazolo[5,4-d]pyrimidin-7-ylamino]-phenyl}-N-methyl-methanesulfonamide], the figures for the IC50 against human TRPV1 and against rat TRPV1 were 3.78 µM and 2.29 µM, respectively.
For `CC(C)C1CCCN1c1nc(Nc2ccc(S(C)(=O)=O)cc2)c2nc(Nc3c(Cl)cccc3Cl)sc2n1` (racemic) [Example 177, (racemic)-N^2-(2,6-Dichloro-phenyl)-5-(2-isopropyl-pyrrolidin-1-yl)-N^7-(4-methanesulfonyl-phenyl)-thiazolo[5,4-d]pyrimidine-2,7-diamine], in that order: 0.021 µM and 0.003 µM.
For `Cc1cccc(C)c1Nc1nc2c(Nc3ccc(S(N)(=O)=O)cc3)ncnc2s1` [Example 44, 4-[2-(2,6-Dimethyl-phenylamino)-thiazolo[5,4-d]pyrimidin-7-ylamino]-benzenesulfonamide], in that order: 14.7 µM and 3.62 µM.
For `FC(F)(F)c1ccc(Nc2ncnc3sc(Nc4ccccc4Cl)nc23)cn1` [Example 220, N^2-(2-Chlorophenyl)-N^7-[6-(trifluoromethyl)pyridin-3-yl][1,3]thiazolo[5,4-d]pyrimidine-2,7-diamine], the IC50 stood at 0.043 µM on human TRPV1 and 0.038 µM on rat TRPV1.
With `FC(F)(F)c1ccc(Nc2ncnc3sc(Nc4c(Cl)cc(CN5CCC5)cc4Cl)nc23)cc1` [Example 239, N^2-(4-Azetidin-1-ylmethyl-2,6-dichloro-phenyl)-N^7-(4-trifluoromethy-phenyl)-thiazolo[5,4-d]pyrimidine-2,7-diamine], the IC50 on human TRPV1 was 3.42 µM; against rat TRPV1, 3.75 µM.
Take `CCN(CC)c1nc(Nc2ccc(C(F)(F)F)cc2)c2nc(Nc3c(Cl)cccc3Cl)sc2n1` [Example 188, N^2-(2,6-Dichloro-phenyl)-N^5,N^5-diethyl-N^7-(4-trifluoromethyl-phenyl)-thiazolo[5,4-d]pyrimidine-2,5,7-triamine]: the values for the IC50 on human TRPV1 and at rat TRPV1 were 0.036 µM and 0.04 µM, respectively.
The corresponding values for `CS(=O)(=O)c1ccc(Nc2nc(N3CCOCC3)nc3sc(Nc4c(Cl)cccc4Cl)nc23)cc1` [Example 178, N^2-(2,6-Dichloro-phenyl)-N^7-(4-methanesulfonyl-phenyl)-5-morpholin-4-yl-thiazolo[5,4-d]pyrimidine-2,7-diamine] are 0.287 µM and 0.06 µM.
As for `Cc1cccc(C)c1Nc1nc2c(Nc3ccc(C(=O)O)cc3)ncnc2s1` [Example 172, 4-[2-(2,6-Dimethyl-phenylamino)-thiazolo[5,4-d]pyrimidin-7-ylamino]-benzoic acid], the IC50 on human TRPV1 and at rat TRPV1 was above 20 µM throughout.
Consider `CC(C)N1CCN(c2nc(Nc3ccc(C(F)(F)F)cc3)c3nc(Nc4c(Cl)cccc4Cl)sc3n2)CC1` [Example 69, N^2-(2,6-Dichloro-phenyl)-5-(4-isopropyl-piperazin-1-yl)-N^7-(4-trifluoromethyl-phenyl)-thiazolo[5,4-d]pyrimidine-2,7-diamine], for which the IC50 on human TRPV1 was 0.185 µM; against rat TRPV1, 0.154 µM.
